# Source: US5763435A, “Sulfate conjugates of ursodeoxycholic acid, and their beneficial use in inflammatory disorders” (priority 1995, dated 1998)
# “And” between values parts separate entries of the source, which are not always exact repeats. Identical values can stand only once.
# Columns and labels:
# [1] = test system: Principal Bile Acids in Colon; experiment: Bile acid composition of colon after oral administration (GC-MS); format: in vivo, Sprague-Dawley rats
# Procedure: (§1) Male Sprague-Dawley rats (Harlan Sprague-Dawley, Inc., Indianapolis, Ind.), weighing 210-290 g, were maintained on a 12-hour light-dark cycle and fed standard laboratory chow ad libitum for 3 days. The animals were then transferred to metabolic cages in which they were housed individually and fed the same diet. UDCA, UDCA 3-sulfate, UDCA 7-sulfate, and UDCA 3,7-disulfate were administered by gavage at a dose of 250 mg/day for 4 consecutive days. Each group comprised 3-6 rats. Body weights of the animals were measured each day. On day 5, the animals were killed by exsanguination under ether anesthesia. Plasma was collected and frozen at -20° C. The liver was removed, rinsed in normal saline, and flash-frozen in liquid nitrogen. Urine and feces were collected every 24 hours and frozen at -20° C. All animals received humane care in compliance with the "Guide for the Care and Use of Laboratory Animals" prepared by the National Academy of Sciences (National Institutes of Health publication no. 86-23, revised in 1985).
# (§2) Intestinal contents were weighed and dissected into small pieces. In each group, feces (100 mg) from all animals were pooled on day 4 of the study and then ground into a fine paste. All samples were sonicated and sequentially refluxed in 80% methanol for 2 hours and chloroform/methanol (1:1) for 1 hour. Samples were taken to dryness, and the dried extracts were resuspended in 80% methanol (20 mL). Fractions of the methanolic extract (1/40 of intestinal contents and 1/20 of feces samples) were removed and the internal standard nordeoxycholic acid (10 μg) was added. This extract was diluted with 0.01 mol/L acetic acid (20 mL) and passed first through a column of Lipidex 1000 (bed size, 4×1 cm; Packard Instrument Co., Groningen, The Netherlands) and then through a Bond-Elut C18, cartridge (Analytichem, Harbor City, Calif.). Bile acids were recovered by elution of the Lipidex 1000 column and the Bond-Elut cartridge with methanol (20 mL and 5 mL, respectively), and the combined extracts were taken to dryness. Unconjugated bile acids were isolated and separated from neutral sterol and conjugated bile acids by lipophilic anion exchange chromatography on diethylaminohydroxypropyl Sephadex LH-20 (Lipidex-DEAP; Package Instrument Co.). Recovery of unconjugated bile acids was achieved by elution with 0.1 mol/L acetic acid in 72% ethanol (7 mL) followed by evaporation of the solvents. Total conjugated bile acids were recovered with 9 mL of 0.3 mol/L acetic acid in 72% ethanol, pH 9.6. Salts were removed by passage through a Bond-Elut C18 cartridge after addition of nordeoxycholic acid (10 μg), and conjugated bile acids were recovered by elution with 5 mL of methanol. Solvolysis was performed in a mixture of methanol (1 mL), distilled tetrahydrofuran (9 mL), and 1 mol/L trifluoracetic acid in dioxane (0.1 mL) and heated to 45° C for 2 hours. After solvolysis, unconjugated bile acids were isolated by chromatography on Lipidex-DEAP. Methyl ester derivatives were prepared by dissolving the sample in methanol (0.3 mL) and reacting with 2.7 mL of freshly distilled ethereal diazomethane. After evaporation of the reagents, the methyl ester derivatives were converted to trimethylsilyl ethers by the addition of […] of Tri-Sil reagent (Pierce Chemicals, Rockford, Ill.). A column of Lipidex 5000 (Packard Instrument Co.) was used to remove derivatizing reagents and to purify the sample.
# (§3) GC-MS analysis was performed using a Finnigan 4635 mass spectrometer (Finnigan Inc., San Jose, Calif.) that housed an identical gas chromatography column operated under the same conditions. Electron ionization (70 eV) mass spectra were recorded over the mass range of 50-800 daltons by repetitive scanning of the eluting components. […]
# serum liver enzymes = settings: oral administration; cited from earlier work
# [2] = test system: chemically induced colon cancer; settings: in vivo; cited from earlier work
# [3] = test system: Principal Bile Acids in Jejunum; experiment: Bile acid composition of jejunum after oral administration (GC-MS); format: in vivo, Sprague-Dawley rats
# Procedure: as §1, §2
# Samples of liver (100 mg) were ground to a fine paste, and bile acids were extracted by reflux and passage through a column of Lipidex 1000 as described above for intestinal contents and feces. Group separation of bile acids, according to their mode of conjugation was achieved by lipophilic anion-exchange chromatography. […]
# [4] = Plasma UDCA concentration after oral administration; format: in vivo, Sprague-Dawley rats; settings: read-out: Unconjugated plasma UDCA concentration
# Procedure: Male Sprague-Dawley rats (Harlan Sprague-Dawley, Inc., Indianapolis, Ind.), weighing 210-290 g, were maintained on a 12-hour light-dark cycle and fed standard laboratory chow ad libitum for 3 days. The animals were then transferred to metabolic cages in which they were housed individually and fed the same diet. UDCA, UDCA 3-sulfate, UDCA 7-sulfate, and UDCA 3,7-disulfate were administered by gavage at a dose of 250 mg/day for 4 consecutive days. Each group comprised 3-6 rats. Body weights of the animals were measured each day. On day 5, the animals were killed by exsanguination under ether anesthesia. Plasma was collected and frozen at -20° C. […]
# In each group, urine from all animals was pooled on the individual days of collection. […] After the addition of nordeoxycholic acid (1 μg), bile acids were quantitatively extracted from portions of urine (3 mL) and plasma (1 mL) using Bond-Elut C18 cartridges. […]
# as §3
# Data are expressed as mean±SEM or as mean values of all animals when extracts were pooled before analysis. […]
# [5] = oral gavage 250 mg/day, 4 days, mean ± SEM
smiles,measurement,setting,value
"C[C@H](CCC(=O)O)[C@H]1CC[C@H]2[C@@H]3[C@@H](O)C[C@@H]4C[C@H](O)CC[C@]4(C)[C@H]3CC[C@]12C [UDCA, 3 alpha, 7 beta-dihydroxy-5 beta-cholan-24oic acid, reference compound]",Chenodeoxycholic acid mass in colon,[1]; [5],0.05 mg
same,Cholic acid mass in colon,[1]; [5],0.24 mg
same,Cholic acid percent of colonic bile acids,[1]; [5],8.9%
same,Deoxycholic acid mass in colon,[1]; [5],0.31 mg
same,Deoxycholic acid percent of colonic bile acids,[1]; [5],10.4%
same,Lithocholic acid mass in colon,[1]; [5],0.97 mg
same,Lithocholic acid percent of colonic bile acids,[1]; [5],32.0%
same,Total bile acid mass in colon,[1]; [5],3.04 mg
same,UDCA mass in colon,[1]; [5],0.31 mg
same,UDCA percent of colonic bile acids,[1]; [5],8.3%
same,Δ^22-UDCA mass in colon,[1]; [5],0.02 mg
same,Δ^22-UDCA percent of colonic bile acids,[1]; [5],0.4%
same,Δ^22-ω-Muricholic acid mass in colon,[1]; [5],0.19 mg
same,α-Muricholic acid mass in colon,[1]; [5],0.01 mg
same,β-Muricholic acid mass in colon,[1]; [5],0.13 mg
same,ω-Muricholic acid mass in colon,[1]; [5],0.83 mg
same,Change in colonic deoxycholic / lithocholic acid (in words),"[1]; oral, vs control",decrease (P=0.003) in the proportion of deoxycholic acid
same,Serum liver enzymes (in words),serum liver enzymes,significant improvement in serum liver enzymes
same,Effect in colon cancer models (in words),[2],beneficial effects
same,Δ^22 UDCA in jejunum (in words),[3]; oral,detected in large proportions and amounts
same,UDCA mass in jejunum,"[3]; oral gavage 250 mg/day, 4 days, 24 hours after final dose, mean ± SEM",9.95 mg and 9.95 ± 0.49 mg
same,Chenodeoxycholic acid mass in jejunum,[3]; [5],0.98 mg
same,Cholic acid mass in jejunum,[3]; [5],4.68 mg and 4.68 ± 0.65 mg
same,Cholic acid percent of jejunal bile acids,[3]; [5],16.8%
same,Deoxycholic acid mass in jejunum,[3]; [5],1.56 mg
same,Deoxycholic acid percent of jejunal bile acids,[3]; [5],5.6%
same,Lithocholic acid mass in jejunum,[3]; [5],0.26 mg
same,Lithocholic acid percent of jejunal bile acids,[3]; [5],1.0%
same,Total bile acid mass in jejunum,[3]; [5],27.77 mg
same,UDCA percent of jejunal bile acids,[3]; [5],35.9%
same,Δ^22-UDCA mass in jejunum,[3]; [5],4.00 mg
same,Δ^22-UDCA percent of jejunal bile acids,[3]; [5],14.5%
same,Δ^22-β-Muricholic acid mass in jejunum,[3]; [5],0.85 mg
same,Δ^22-ω-Muricholic acid mass in jejunum,[3]; [5],0.30 mg
same,α-Muricholic acid mass in jejunum,[3]; [5],0.75 mg
same,β-Muricholic acid mass in jejunum,[3]; [5],4.12 mg
same,ω-Muricholic acid mass in jejunum,[3]; [5],0.31 mg
same,Conjugation pattern of UDCA in jejunum,"[3]; oral, anion-exchange chromatography","predominantly glyco- and tauro-UDCA, smaller amounts of unconjugated UDCA, and negligible amounts of sulfated UDCA"
same,concentration,[4],4.8 ± 2.2 µM
